Structures are written as SMILES. Bounds are passed on as bounds.

The target of the first assay is T1, PIP4K2C (Homo sapiens, UniProt Q8TBX8).
T1 sequence (Q8TBX8 1-421): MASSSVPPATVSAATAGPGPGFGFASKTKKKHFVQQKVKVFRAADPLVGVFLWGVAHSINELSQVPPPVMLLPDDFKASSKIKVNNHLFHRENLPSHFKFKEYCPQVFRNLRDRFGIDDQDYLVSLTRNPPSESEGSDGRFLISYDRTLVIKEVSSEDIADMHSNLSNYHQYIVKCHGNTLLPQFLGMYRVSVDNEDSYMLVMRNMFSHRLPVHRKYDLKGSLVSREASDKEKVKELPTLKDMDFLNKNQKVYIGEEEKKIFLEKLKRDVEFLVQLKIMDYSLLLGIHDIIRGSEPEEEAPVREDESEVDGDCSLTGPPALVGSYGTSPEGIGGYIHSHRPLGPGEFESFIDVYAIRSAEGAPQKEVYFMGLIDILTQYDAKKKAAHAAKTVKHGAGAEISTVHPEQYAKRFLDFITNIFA
The experiment in a line: HiBiT PIP4K2C degradation assay in MOLT-4 cells (endogenous PIP4K2C C-terminally tagged with HiBiT). The assay is classed as cell-based. Details: untagged in primary human PBMCs and monocyte-derived dendritic cells. As to conditions: 6 hours of incubation time, rather than 24 hours; MOLT-4, top concentration 10 micromolar; read-out: HiBIT-degradation MOLT4 PIP4k2C DC50 (6 hours, marked *). In outline:
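MOLT-4 cells with endogenous PIP4K2C C-terminally HiBiT-tagged by CRISPR were treated with a 10-point, 3-fold dilution series from 10 micromolar, in duplicate, for 24 h or 6 h at 37 C. Remaining tagged protein read by HiBiT lytic luminescence; DC50 from Hill-equation fit.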
As for `O=C1CCC(Nc2ccc(N3CCC(O)(CN4CCN(C(=O)[C@H]5CC[C@H](Nc6ncc(F)c(-c7cccc(-n8ccccc8=O)c7)n6)CC5)CC4)CC3)c(F)c2)C(=O)N1` (stereo partly drawn) [Compound 410, trans-3-((3-fluoro-4-(4-((4-(4-((5-fluoro-4-(3-(2-oxopyridin-1(2H)-yl)phenyl)pyrimidin-2-yl)amino)cyclohexane-1-carbonyl)piperazin-1-yl)methyl)-4-hydroxypiperidin-1-yl)phenyl)amino)piperidine-2,6-dione], the DC50 was below 0.5 µM.
Same read-out and setting: then `O=C1CC[C@H](Nc2ccc(N3CCN([C@H]4CC[C@H](C(=O)N[C@H]5CC[C@H](Nc6ncc(F)c(-c7cccc(-n8ccccc8=O)c7)n6)CC5)CC4)CC3)c(F)c2)C(=O)N1` (single isomer, unassigned) [Compound 603], with below 0.5 µM; and `O=C1CC[C@@H](Nc2ccc(N3CCC(N4CCC(NC(=O)[C@H]5CC[C@H](Nc6ncc(F)c(-c7cccc(-n8ccccc8=O)c7)n6)CC5)CC4)CC3)c(F)c2)C(=O)N1` [Compound 440, trans-N-(1′-(4-(((R)-2,6-dioxopiperidin-3-yl)amino)-2-fluorophenyl)-[1,4′-bipiperidin]-4-yl)-4-((5-fluoro-4-(3-(2-oxopyridin-1(2H)-yl)phenyl)pyrimidin-2-yl)amino)cyclohexane-1-carboxamide], with below 0.5 µM; and `O=C1CCC(Nc2ccc(N3CCC(CN4CCC(CC(=O)N[C@H]5CC[C@H](Nc6ncc(F)c(-c7cccc(-n8ccccc8=O)c7)n6)CC5)CC4)CC3)c(F)c2)C(=O)N1` (stereo partly drawn) [Compound 704, trans-2-(1-((1-(4-((2,6-dioxopiperidin-3-yl)amino)-2-fluorophenyl)piperidin-4-yl)methyl)piperidin-4-yl)-N-(4-((5-fluoro-4-(3-(2-oxopyridin-1 (2H)-yl)phenyl)pyrimidin-2-yl)amino)cyclohexyl)acetamide], with below 0.5 µM.
Same read-out and setting: then `O=C1CCC(Nc2ccc(C3CCN(CC4CCN(C(=O)[C@H]5CC[C@H](Nc6ncc(F)c(-c7cccc(N8CCOCC8)c7)n6)CC5)CC4)CC3)c(F)c2)C(=O)N1` (stereo partly drawn) [Compound 672, trans-3-((3-fluoro-4-(1-((1-(4-((5-fluoro-4-(3-morpholinophenyl)pyrimidin-2-yl)amino)cyclohexane-1-carbonyl)piperidin-4-yl)methyl)piperidin-4-yl)phenyl)amino)piperidine-2,6-dione], with below 0.5 µM.
As for `O=C1CC[C@@H](Nc2ccc(N3CCN(C[C@H]4CC[C@H](CNC(=O)[C@H]5CC[C@H](Nc6ncc(F)c(-c7cccc(-n8ccccc8=O)c7)n6)CC5)CC4)CC3)c(F)c2)C(=O)N1` (single isomer, unassigned) [Compound 459], the DC50 was below 0.5 µM.
As to `O=C1CCC(Nc2ccc(N3CCC(CN4CCN(C(=O)[C@H]5CC[C@H](Nc6ncc(F)c(-c7cccc(-n8ccccc8=O)c7)n6)CC5)CC4)CC3)c(F)c2)C(=O)N1` (stereo partly drawn) [Compound 387, trans-3-((3-fluoro-4-(4-((4-(4-((5-fluoro-4-(3-(2-oxopyridin-1(2H)-yl)phenyl)pyrimidin-2-yl)amino)cyclohexane-1-carbonyl)piperazin-1-yl)methyl)piperidin-1-yl)phenyl)amino)piperidine-2,6-dione], the DC50 was below 0.5 µM.
Still for that read-out and setting: in the case of `O=C1CCC(Nc2ccc(N3CCN([C@H]4CC[C@H](C(=O)N[C@H]5CC[C@H](Nc6ncc(F)c(-c7cccc(-c8ccccc8)c7)n6)CC5)CC4)CC3)c(F)c2)C(=O)N1` (stereo partly drawn) [Compound 604, trans-(1r,4R)—N-((1r,4R)-4-((4-([1,1′-biphenyl]-3-yl)-5-fluoropyrimidin-2-yl)amino)cyclohexyl)-4-(4-(4-((2,6-dioxopiperidin-3-yl)amino)-2-fluorophenyl)piperazin-1-yl)cyclohexane-1-carboxamide] it was below 0.5 µM.

Still in this assay, the particulars now being: 24 hours incubation, MOLT-4, top concentration 10 micromolar; read-out: HiBIT-degradation MOLT4 PIP4k2C 24 hours DC50.
On to `Cn1c(=O)n(C2CCC(=O)NC2=O)c2ccc(C3CCN(CCC4CCN(C(=O)[C@@H]5CCC[C@H](Nc6ncc(Cl)c(-c7cccc(-c8ccccc8)c7)n6)C5)CC4)CC3)cc21` (stereo partly drawn) [Compound 280, 3-(5-(1-(2-(1-((1R,3S)-3-((4-([1,1′-biphenyl]-3-yl)-5-chloropyrimidin-2-yl)amino)cyclohexane-1-carbonyl)piperidin-4-yl)ethyl)piperidin-4-yl)-3-methyl-2-oxo-2,3-dihydro-1H-benzo[d]imidazol-1-yl)piperidine-2,6-dione], for which the DC50 was below 0.5 µM.
Take `Cn1nc(C2CCC(=O)NC2=O)c2ccc(N3CCC(N4CCC(CNC(=O)[C@H]5CCC[C@@H](Nc6ncc(F)c(-c7cccc(-n8ccccc8=O)c7)n6)C5)CC4)CC3)cc21` (relative stereo) [Compound 333, cis-N-((1′-(3-(2,6-dioxopiperidin-3-yl)-1-methyl-1H-indazol-6-yl)-[1,4′-bipiperidin]-4-yl)methyl)-3-((5-fluoro-4-(3-(2-oxopyridin-1(2H)-yl)phenyl)pyrimidin-2-yl)amino)cyclohexane-1-carboxamide]: the DC50 was below 0.5 µM.
As for `O=C1CCC(n2c(=O)oc3cc(C4CCN(CC5CCN(CC(=O)N6CCC(Nc7ncc(Cl)c(-c8cccc(-n9ccccc9=O)c8)n7)CC6)CC5)CC4)ccc32)C(=O)N1` (stereo not drawn) [Compound 373, 3-(6-(1-((1-(2-(4-((5-chloro-4-(3-(2-oxopyridin-1(2H)-yl)phenyl)pyrimidin-2-yl)amino)piperidin-1-yl)-2-oxoethyl)piperidin-4-yl)methyl)piperidin-4-yl)-2-oxobenzo[d]oxazol-3 (2H)-yl)piperidine-2,6-dione], the DC50 was above 5 µM.
On the same count and under the same terms, in the case of `O=C1CCC(N2Cc3cc(OC4CCN(CCN5CCC(C(=O)N6CCC(Nc7ncc(Cl)c(-c8cccc(-c9ccccc9)c8)n7)CC6)CC5)CC4)ccc3C2=O)C(=O)N1` (stereo not drawn) [Compound 89, 3-(5-((1-(2-(4-(4-((4-([1,1′-biphenyl]-3-yl)-5-chloropyrimidin-2-yl)amino)piperidine-1-carbonyl)piperidin-1-yl)ethyl)piperidin-4-yl)oxy)-1-oxoisoindolin-2-yl)piperidine-2,6-dione] it was below 0.5 µM.
Still for that read-out and setting: then `O=C1CCC(N2Cc3cc(OC4CCN(C5CCN(CCC(=O)N6CCC(Nc7ncc(Cl)c(-c8cccc(-c9ccccc9)c8)n7)CC6)CC5)CC4)ccc3C2=O)C(=O)N1` (stereo not drawn) [Compound 90, 3-(5-((1′-(3-(4-((4-([1,1′-biphenyl]-3-yl)-5-chloropyrimidin-2-yl)amino)piperidin-1-yl)-3-oxopropyl)-[1,4′-bipiperidin]-4-yl)oxy)-1-oxoisoindolin-2-yl)piperidine-2,6-dione], with below 0.5 µM.
On the same count and under the same terms, in the case of `Cn1nc(C2CCC(=O)NC2=O)c2ccc(C3CCN(C(=O)CN4CCC(O)(C(=O)N5CCC(Nc6ncc(Cl)c(-c7cccc(-c8ccc(F)cc8)c7)n6)CC5)CC4)CC3)cc21` (stereo not drawn) [Compound 289, 3-(6-(1-(2-(4-(4-((5-chloro-4-(4′-fluoro-[1,1′-biphenyl]-3-yl)pyrimidin-2-yl)amino)piperidine-1-carbonyl)-4-hydroxypiperidin-1-yl)acetyl)piperidin-4-yl)-1-methyl-1H-indazol-3-yl)piperidine-2,6-dione] it was below 0.5 µM; in that of `O=C1CCC(Nc2ccc(C3CCN(CC4CCN(CC(=O)N[C@H]5CC[C@H](Nc6ncc(F)c(-c7cccc(-c8ccc[nH]c8=O)c7)n6)CC5)CC4)CC3)c(F)c2)C(=O)N1` (stereo partly drawn) [Compound 365, trans-2-(4-((4-(4-((2,6-dioxopiperidin-3-yl)amino)-2-fluorophenyl)piperidin-1-yl)methyl)piperidin-1-yl)-N-(4-((5-fluoro-4-(3-(2-oxo-1,2-dihydropyridin-3-yl)phenyl)pyrimidin-2-yl)amino)cyclohexyl)acetamide], below 0.5 µM.

Source of the values: patent US20260355196A1, “INHIBITORS AND DEGRADERS OF PIP4K PROTEIN” (Larkspur Biosciences, Inc., priority 2023, published 2026).
